Assay results published in ChEMBL document CHEMBL4507276 (2021).

Assays:
[1] = target: Tyrosine-protein kinase Blk (Homo sapiens) (UniProt P51451); settings: Compound concentration 1000.0 nM
[2] = target: Cyclin-dependent kinase 7 (Homo sapiens) (UniProt P50613); settings: Compound concentration 1000.0 nM
[3] = target: T1, G protein-coupled receptor kinase 3 (Homo sapiens) (UniProt P35626); settings: Compound concentration 1000.0 nM
T1 sequence (whole entry): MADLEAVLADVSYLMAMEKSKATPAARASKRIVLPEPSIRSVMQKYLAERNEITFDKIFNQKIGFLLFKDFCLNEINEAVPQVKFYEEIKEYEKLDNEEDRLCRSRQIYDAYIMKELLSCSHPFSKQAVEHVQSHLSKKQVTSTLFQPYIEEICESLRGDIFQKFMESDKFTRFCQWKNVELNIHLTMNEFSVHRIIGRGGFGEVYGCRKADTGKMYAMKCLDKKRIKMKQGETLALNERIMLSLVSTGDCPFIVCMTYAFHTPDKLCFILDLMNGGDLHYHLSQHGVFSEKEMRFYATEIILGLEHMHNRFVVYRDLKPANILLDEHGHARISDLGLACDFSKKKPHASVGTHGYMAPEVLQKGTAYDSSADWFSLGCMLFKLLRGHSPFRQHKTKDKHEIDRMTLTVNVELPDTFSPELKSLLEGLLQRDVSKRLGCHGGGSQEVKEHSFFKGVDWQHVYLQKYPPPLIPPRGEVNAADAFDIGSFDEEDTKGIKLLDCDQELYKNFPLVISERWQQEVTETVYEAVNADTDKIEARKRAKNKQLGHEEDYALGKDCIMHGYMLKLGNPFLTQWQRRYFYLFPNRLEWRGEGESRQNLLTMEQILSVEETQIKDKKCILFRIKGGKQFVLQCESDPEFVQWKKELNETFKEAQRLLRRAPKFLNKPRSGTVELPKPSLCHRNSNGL

[4] = target: Tyrosine-protein kinase HCK (Homo sapiens) (UniProt P08631); settings: Compound concentration 1000.0 nM
[5] = target: Interleukin-1 receptor-associated kinase 1 (Homo sapiens) (UniProt P51617); settings: Compound concentration 1000.0 nM
[6] = target: Serine/threonine-protein kinase STK11 (Homo sapiens) (UniProt Q15831); settings: Compound concentration 1000.0 nM
[7] = target: Serine/threonine-protein kinase 10 (Homo sapiens) (UniProt O94804); settings: Compound concentration 1000.0 nM
[8] = target: Tyrosine-protein kinase Lyn (Homo sapiens) (UniProt P07948); settings: Compound concentration 1000.0 nM
[9] = target: Mitogen-activated protein kinase kinase kinase kinase 5 (Homo sapiens) (UniProt Q9Y4K4); settings: Compound concentration 1000.0 nM
[10] = target: Dual specificity mitogen-activated protein kinase kinase 1 (Homo sapiens) (UniProt Q02750); settings: Compound concentration 1000.0 nM
[11] = target: Dual specificity mitogen-activated protein kinase kinase 5 (Homo sapiens) (UniProt Q13163); settings: Compound concentration 1000.0 nM
[12] = test system: Hepatocyte growth factor receptor (Homo sapiens), P08581 [M1250T]; settings: Compound concentration 1000.0 nM
[13] = target: Myosin light chain kinase 2, skeletal/cardiac muscle (Homo sapiens) (UniProt Q9H1R3); settings: Compound concentration 1000.0 nM
[14] = test system: Phosphatidylinositol 4,5-bisphosphate 3-kinase catalytic subunit alpha isoform (Homo sapiens), P42336 [C420R]; settings: Compound concentration 1000.0 nM
[15] = test system: Phosphatidylinositol 4,5-bisphosphate 3-kinase catalytic subunit alpha isoform (Homo sapiens), P42336 [H1047Y]; settings: Compound concentration 1000.0 nM
[16] = target: Phosphatidylinositol 4,5-bisphosphate 3-kinase catalytic subunit beta isoform (Homo sapiens) (UniProt P42338); settings: Compound concentration 1000.0 nM
[17] = target: Phosphatidylinositol 4,5-bisphosphate 3-kinase catalytic subunit gamma isoform (Homo sapiens) (UniProt P48736); settings: Compound concentration 1000.0 nM
[18] = test system: Proto-oncogene tyrosine-protein kinase receptor Ret (Homo sapiens), P07949 [V804M]; settings: Compound concentration 1000.0 nM
[19] = target: Ribosomal protein S6 kinase alpha-1 (Homo sapiens) (UniProt Q15418); settings: Compound concentration 1000.0 nM
[20] = target: BDNF/NT-3 growth factors receptor (Homo sapiens) (UniProt Q16620); settings: Compound concentration 1000.0 nM
[21] = target: Histamine H4 receptor (Homo sapiens) (UniProt Q9H3N8); settings: Compound concentration 10.0 uM
[22] = target: T2, Alpha-1A adrenergic receptor (Homo sapiens) (UniProt P35348); settings: Compound concentration 10.0 uM
T2 sequence (whole entry): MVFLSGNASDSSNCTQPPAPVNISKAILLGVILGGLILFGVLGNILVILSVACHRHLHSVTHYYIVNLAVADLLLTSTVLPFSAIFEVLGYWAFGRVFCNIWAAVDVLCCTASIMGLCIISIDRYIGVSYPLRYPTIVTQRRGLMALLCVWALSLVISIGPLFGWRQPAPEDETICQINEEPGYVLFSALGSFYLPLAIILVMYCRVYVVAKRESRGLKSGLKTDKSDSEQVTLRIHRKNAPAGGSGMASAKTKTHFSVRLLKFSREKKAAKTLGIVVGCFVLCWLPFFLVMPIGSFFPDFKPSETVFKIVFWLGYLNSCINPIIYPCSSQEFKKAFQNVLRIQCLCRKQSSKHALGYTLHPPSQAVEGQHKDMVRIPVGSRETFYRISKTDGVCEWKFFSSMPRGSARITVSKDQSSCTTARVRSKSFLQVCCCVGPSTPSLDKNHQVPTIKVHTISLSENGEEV

Sequence of Tyrosine-protein kinase Blk (Homo sapiens) (P51451 2-505 limits assumed): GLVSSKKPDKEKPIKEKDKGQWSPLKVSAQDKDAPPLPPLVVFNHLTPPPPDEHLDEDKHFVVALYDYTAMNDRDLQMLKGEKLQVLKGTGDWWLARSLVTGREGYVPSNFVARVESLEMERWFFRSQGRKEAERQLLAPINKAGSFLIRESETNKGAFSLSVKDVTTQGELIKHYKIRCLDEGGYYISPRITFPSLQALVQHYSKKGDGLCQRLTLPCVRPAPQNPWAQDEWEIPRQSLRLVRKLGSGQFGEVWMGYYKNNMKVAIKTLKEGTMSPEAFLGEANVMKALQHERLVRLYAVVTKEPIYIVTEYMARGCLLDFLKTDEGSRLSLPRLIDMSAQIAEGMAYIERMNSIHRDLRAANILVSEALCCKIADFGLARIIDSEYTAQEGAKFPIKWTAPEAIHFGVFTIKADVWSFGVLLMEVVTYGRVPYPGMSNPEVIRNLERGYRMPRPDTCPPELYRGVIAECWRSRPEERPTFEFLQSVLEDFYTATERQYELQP
Sequence of Tyrosine-protein kinase Lyn (Homo sapiens) (P07948 2-512 limits assumed): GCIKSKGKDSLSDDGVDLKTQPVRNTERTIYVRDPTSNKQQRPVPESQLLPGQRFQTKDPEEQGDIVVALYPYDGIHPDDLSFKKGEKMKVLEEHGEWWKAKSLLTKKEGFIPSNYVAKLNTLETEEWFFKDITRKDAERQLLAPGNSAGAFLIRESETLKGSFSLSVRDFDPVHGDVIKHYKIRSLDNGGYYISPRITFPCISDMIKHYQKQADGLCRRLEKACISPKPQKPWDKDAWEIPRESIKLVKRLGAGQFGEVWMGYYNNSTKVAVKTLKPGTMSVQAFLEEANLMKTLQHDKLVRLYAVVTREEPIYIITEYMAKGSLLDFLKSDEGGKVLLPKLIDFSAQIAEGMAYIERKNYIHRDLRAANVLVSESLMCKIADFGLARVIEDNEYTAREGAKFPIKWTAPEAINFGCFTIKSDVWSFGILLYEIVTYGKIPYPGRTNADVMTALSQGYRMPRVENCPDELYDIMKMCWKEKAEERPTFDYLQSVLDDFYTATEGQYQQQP
Sequence of Phosphatidylinositol 4,5-bisphosphate 3-kinase catalytic subunit alpha isoform (Homo sapiens), P42336 [C420R] (P42336 whole entry C420R, canonical isoform): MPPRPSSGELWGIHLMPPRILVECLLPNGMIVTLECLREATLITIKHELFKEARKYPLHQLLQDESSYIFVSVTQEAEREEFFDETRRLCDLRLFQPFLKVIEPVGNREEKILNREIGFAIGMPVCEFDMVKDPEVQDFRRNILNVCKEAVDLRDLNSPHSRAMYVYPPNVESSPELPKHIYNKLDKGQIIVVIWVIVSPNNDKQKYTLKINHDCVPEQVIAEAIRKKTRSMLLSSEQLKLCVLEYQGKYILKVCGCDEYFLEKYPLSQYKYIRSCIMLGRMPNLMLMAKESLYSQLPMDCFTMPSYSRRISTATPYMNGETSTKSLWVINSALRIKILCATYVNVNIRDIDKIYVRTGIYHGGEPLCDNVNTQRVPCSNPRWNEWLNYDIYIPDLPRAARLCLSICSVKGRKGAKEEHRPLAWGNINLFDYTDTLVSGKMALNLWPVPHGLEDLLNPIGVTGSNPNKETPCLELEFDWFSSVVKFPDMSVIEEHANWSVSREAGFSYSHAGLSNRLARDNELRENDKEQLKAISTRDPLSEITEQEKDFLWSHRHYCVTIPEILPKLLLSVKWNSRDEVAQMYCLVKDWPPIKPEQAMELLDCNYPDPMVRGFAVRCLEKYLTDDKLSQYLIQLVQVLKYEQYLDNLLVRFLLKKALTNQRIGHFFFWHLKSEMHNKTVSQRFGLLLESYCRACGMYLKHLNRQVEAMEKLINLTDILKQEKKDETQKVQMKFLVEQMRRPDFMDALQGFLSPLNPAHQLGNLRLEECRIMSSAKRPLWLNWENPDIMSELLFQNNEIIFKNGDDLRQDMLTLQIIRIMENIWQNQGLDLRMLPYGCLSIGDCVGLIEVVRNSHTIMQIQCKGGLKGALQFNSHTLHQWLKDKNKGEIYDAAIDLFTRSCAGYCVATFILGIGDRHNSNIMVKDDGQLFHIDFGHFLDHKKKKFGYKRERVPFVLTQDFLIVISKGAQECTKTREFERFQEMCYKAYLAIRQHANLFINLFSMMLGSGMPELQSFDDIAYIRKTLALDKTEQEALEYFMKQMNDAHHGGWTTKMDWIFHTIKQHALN
Sequence of Phosphatidylinositol 4,5-bisphosphate 3-kinase catalytic subunit beta isoform (Homo sapiens) (P42338 whole entry, looked up, canonical isoform): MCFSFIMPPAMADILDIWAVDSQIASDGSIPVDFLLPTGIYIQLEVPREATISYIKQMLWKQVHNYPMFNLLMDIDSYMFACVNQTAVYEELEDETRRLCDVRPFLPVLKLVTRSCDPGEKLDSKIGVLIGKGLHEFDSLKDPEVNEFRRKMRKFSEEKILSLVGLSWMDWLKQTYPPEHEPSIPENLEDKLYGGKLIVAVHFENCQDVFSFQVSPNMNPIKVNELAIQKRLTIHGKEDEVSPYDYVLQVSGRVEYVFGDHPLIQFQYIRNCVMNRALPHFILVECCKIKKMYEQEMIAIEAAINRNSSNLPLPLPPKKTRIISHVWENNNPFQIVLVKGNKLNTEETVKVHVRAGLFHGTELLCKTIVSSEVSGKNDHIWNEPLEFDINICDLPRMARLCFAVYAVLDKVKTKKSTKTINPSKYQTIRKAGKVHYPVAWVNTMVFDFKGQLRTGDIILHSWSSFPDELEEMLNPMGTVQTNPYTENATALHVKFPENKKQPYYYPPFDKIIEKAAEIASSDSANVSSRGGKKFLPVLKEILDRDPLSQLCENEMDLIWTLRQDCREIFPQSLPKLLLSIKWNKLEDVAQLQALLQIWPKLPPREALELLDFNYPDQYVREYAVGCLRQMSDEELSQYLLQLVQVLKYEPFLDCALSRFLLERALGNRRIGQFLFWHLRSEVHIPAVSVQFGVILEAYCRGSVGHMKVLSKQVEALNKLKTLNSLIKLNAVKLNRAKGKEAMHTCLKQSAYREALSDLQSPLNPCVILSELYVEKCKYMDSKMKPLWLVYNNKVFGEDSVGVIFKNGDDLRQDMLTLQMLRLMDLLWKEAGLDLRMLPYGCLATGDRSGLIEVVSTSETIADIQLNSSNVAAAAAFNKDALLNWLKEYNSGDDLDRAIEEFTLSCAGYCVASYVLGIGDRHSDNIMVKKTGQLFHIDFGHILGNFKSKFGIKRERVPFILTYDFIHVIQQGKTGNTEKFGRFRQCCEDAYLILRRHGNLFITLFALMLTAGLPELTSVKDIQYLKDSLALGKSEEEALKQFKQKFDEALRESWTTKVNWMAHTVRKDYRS
Sequence of Tyrosine-protein kinase HCK (Homo sapiens) (P08631 2-526 limits assumed): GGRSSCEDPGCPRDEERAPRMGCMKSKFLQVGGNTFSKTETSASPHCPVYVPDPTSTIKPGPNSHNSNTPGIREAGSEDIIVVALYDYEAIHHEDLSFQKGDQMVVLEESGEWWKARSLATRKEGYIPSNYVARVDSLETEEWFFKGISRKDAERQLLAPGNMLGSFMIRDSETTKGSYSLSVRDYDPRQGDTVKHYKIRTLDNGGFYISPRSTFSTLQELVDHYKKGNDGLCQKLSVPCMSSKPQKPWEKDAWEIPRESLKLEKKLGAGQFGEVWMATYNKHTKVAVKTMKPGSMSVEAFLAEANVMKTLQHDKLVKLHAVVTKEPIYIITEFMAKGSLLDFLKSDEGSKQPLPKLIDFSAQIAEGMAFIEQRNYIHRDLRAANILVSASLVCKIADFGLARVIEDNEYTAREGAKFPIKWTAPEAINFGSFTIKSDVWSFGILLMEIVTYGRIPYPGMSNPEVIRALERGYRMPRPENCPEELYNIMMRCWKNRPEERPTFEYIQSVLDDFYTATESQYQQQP
Sequence of BDNF/NT-3 growth factors receptor (Homo sapiens) (Q16620 32-822 limits assumed): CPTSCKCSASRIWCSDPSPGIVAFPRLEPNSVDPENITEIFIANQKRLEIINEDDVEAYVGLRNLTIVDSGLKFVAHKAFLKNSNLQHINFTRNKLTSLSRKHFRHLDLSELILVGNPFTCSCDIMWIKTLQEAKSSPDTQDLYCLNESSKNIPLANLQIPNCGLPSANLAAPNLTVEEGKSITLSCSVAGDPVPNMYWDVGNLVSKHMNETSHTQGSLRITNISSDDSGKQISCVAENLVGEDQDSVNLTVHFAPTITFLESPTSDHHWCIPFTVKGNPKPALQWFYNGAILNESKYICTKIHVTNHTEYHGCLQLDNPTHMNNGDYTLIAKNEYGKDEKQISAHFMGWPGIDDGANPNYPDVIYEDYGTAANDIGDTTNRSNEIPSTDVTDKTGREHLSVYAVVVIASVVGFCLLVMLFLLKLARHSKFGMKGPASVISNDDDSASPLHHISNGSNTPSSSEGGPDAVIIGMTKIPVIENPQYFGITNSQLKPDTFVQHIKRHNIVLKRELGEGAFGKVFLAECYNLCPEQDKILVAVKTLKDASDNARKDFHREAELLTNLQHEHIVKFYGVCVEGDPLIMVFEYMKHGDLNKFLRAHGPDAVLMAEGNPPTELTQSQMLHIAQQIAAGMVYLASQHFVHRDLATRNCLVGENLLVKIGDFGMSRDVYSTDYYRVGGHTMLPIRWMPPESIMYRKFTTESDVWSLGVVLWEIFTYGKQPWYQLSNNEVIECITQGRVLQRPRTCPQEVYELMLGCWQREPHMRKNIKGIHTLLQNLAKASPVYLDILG
Sequence of Histamine H4 receptor (Homo sapiens) (Q9H3N8 whole entry): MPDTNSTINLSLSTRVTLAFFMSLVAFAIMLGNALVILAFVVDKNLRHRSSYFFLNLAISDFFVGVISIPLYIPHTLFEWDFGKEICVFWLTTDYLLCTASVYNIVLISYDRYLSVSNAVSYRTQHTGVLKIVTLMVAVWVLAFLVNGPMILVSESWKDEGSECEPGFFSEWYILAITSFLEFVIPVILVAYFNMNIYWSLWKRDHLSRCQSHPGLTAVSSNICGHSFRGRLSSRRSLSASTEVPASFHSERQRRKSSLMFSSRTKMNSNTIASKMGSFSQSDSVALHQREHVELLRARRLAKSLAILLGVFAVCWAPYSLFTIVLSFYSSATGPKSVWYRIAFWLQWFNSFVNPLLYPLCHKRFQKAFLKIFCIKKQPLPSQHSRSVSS
Sequence of Phosphatidylinositol 4,5-bisphosphate 3-kinase catalytic subunit alpha isoform (Homo sapiens), P42336 [H1047Y] (P42336 whole entry H1047Y, canonical isoform): as the sequence (P42336 whole entry C420R, canonical isoform) above, with R420C, H1047Y counted along it

Structure (SMILES)	residual activity [1] [%]	residual activity [2] [%]	residual activity [3] [%]	residual activity [4] [%]	residual activity [5] [%]	residual activity [6] [%]	residual activity [7] [%]	residual activity [8] [%]	residual activity [9] [%]	residual activity [10] [%]	residual activity [11] [%]	residual activity [12] [%]	residual activity [13] [%]	residual activity [14] [%]	residual activity [15] [%]	residual activity [16] [%]	residual activity [17] [%]	residual activity [18] [%]	residual activity [19] [%]	residual activity [20] [%]	also measured
CN(C)C(=O)Cn1cc(-c2nc(C3(c4ccc(-c5cnc(N)nc5)cc4)CC3)no2)cn1 [BI 0153]	83	72	69	100	77	100	100	79	89	82	72	100	90	95	94	96	85	100	99	100	inhibition [21]: 36.6%; inhibition [22]: 13.9%
CN(C)C(=O)Cn1cc(-c2nc([C@@](C)(c3ccc(-c4cnc(N)nc4)cc3)C3CC3)no2)cn1 [BI 665915]	98	59	86	79	85	77	89	87	86	89	62	93	100	73	87	100	72	97	93	81	inhibition [21]: 55.2%; inhibition [22]: 4.68%
